US20160199439A1, “Application of recombinant immunoregulatory protein of ganoderma lucidum in preparation of drug for treating focal cerebral ischemia” (priority 2013, published 2016)

How the values were obtained:
[1] = Weights of rats with focal cerebral ischemia; type: in vivo, rat; conditions: GM-1 group, in g (unit assumed)
Text: Weighing rats before modeling; preparing rat focal cerebral ischemia models through a modified Zea Longa method; weighing the rats on the first postoperative day; and weighing the rats after consecutively administrating a drug for 7 days.

[2] = tested on: rat focal cerebral ischemia models; assay: NSS grading (modified neurological severity scores, 16-point system) in rat focal cerebral ischemia models; type: in vivo; conditions: GM-1 positive drug control group
Experimental: Preparing rat focal cerebral ischemia models through a modified Zea Longa method; grading the rats which were fully conscious after operation according to a modified NSS grading standard (16-point system); arranging a sham operation group, a model group, a positive drug control group, a rLZ-8 high-dosage group (70 μg·kg^−1), a rLZ-8 middle-dosage group (35 μg·kg^−1) and a rLZ-8 low-dosage group (17.5 μg·kg^−1); and injecting intraperitoneally, twice a day, wherein the same volume of physiological saline was injected into the sham operation group and the model group, for consecutive 7 days. A positive drug in the positive drug control group was the GM-1.

apoptotic cells = assay: Test of apoptosis in brain tissue by TUNEL kit; type: in vivo, rat; conditions: GM-1 group; after modeling for 8 days
Experimental: The rLZ-8 high-dosage group, the rLZ-8 middle-dosage group and the rLZ-8 low-dosage group were provided and prepared by physiological saline to respectively have a concentration of 70 μg·ml^−1, 35 μg·ml^−1 and 17.5 μg·ml^−1. TUNEL kit.
The sham operation group, the model group, the positive drug control group, the rLZ-8 high-dosage group (70 μg·ml^−1), the rLZ-8 middle-dosage group (35 μg·ml^−1) and the rLZ-8 low-dosage group (17.5 μg·ml^−1) were provided.
After being embedded by conventional paraffin and sectioned, a brain tissue paraffin section was processed according to instructions of the TUNEL kit. […]

ED-1 positive cells = assay: ED-1 positive cell expression in brain tissue (immunohistochemistry); type: in vivo, rat; conditions: GM-1 group; after modeling for 8 days
Experimental: The rLZ-8 high-dosage group, the rLZ-8 middle-dosage group and the rLZ-8 low-dosage group were provided and prepared by physiological saline to respectively have a concentration of 70 μg·ml^−1, 35 μg·ml^−1 and 17.5 μg·ml^−1. ED-1 antibody was provided by Wuhan Boster Biological Technology Co., Ltd., and PV-6000 two-step method immunohistochemical detection reagent was provided by Beijing Zhongshan Golden Bridge Biotechnology Co., Ltd.
The sham operation group, the model group, the positive drug control group, the rLZ-8 high-dosage group (70 μg·kg^−1), the rLZ-8 middle-dosage group (35 μg·kg^−1) and the rLZ-8 low-dosage group (17.5 μg·kg^−1) were provided.
After being embedded by conventional paraffin and sectioned, a brain tissue paraffin section was tested through an immunologic tissue chemical staining method to test an ED-1 positive cell expression thereof. […]

monosialotetrahexosyl ganglioside sodium injection [GM-1]
Weights of rats ([1]; 0th day after modeling (before modeling)): 266.17 ± 21.21 | Weights of rats ([1]; 1st day after modeling): 246.17 ± 21.99 | Weights of rats ([1]; 8th day after modeling, drug for 7 days): 251.17 ± 40.31 | NSS grading ([2]; 1st day): 4.33 ± 1.30 | NSS grading ([2]; 2nd day): 3.92 ± 1.38 | NSS grading ([2]; 3rd day): 3.58 ± 1.24 | NSS grading ([2]; 4th day): 2.75 ± 1.09 | NSS grading ([2]; 5th day): 2.50 ± 1.00 | NSS grading ([2]; 6th day): 2.58 ± 1.08 | NSS grading ([2]; 7th day): 2.41 ± 1.00 | NSS grading ([2]; i.p. twice a day, 0th day, n=12): 4.75 ± 1.30 | Apoptotic cell number (TUNEL) (apoptotic cells): 23.10 ± 2.47 | ED-1 positive cell number (ED-1 positive cells): 13.87 ± 2.39
